We go through two molecules from paper PMC11347369, “Synthesis and antibacterial action of 3’,6’-disubstituted spectinomycins” (The Journal of Antibiotics, 2024).

The test system of data set [1] is E. coli K12.
For a further data set, the system named is S. aureus USA300. Kind of data set: MIC broth microdilution, S. aureus. The note with it: Staphylococcus aureus. Format: cell-based. For orientation: Broth dilution looks for growth in wells or tubes with falling amounts of substance.
Another data set has as its system E. faecalis ATCC 29212. Kind of data set: MIC broth microdilution, E. faecalis. The note with it: Enterococcus faecalis, ATCC29212; E. faecalis ATCC 29212; read-out: Minimum Inhibitory Concentration. Format: cell-based.
In data set [2] the test system is K. pneumoniae ATCC 700603. Kind of data set: MIC broth microdilution, K. pneumoniae. Format: cell-based, Klebsiella pneumoniae. The note with it: for MIC: Klebsiella pneumoniae.
The test system of data set [3] is S. epidermidis ATCC 14990. Kind of data set: MIC broth microdilution, S. epidermidis. Format: cell-based. The note with it: Staphylococcus epidermidis.
The test system of data set [4] is M. tuberculosis H37Rv ∆1258c. Kind of data set: microbe, parasite or virus in culture. Format: cell-based. The note with it: Mycobacterium tuberculosis, 168 h.
In data set [5] the test system is M. tuberculosis H37Rv.
The next data set concerns A. baumannii ATCC 19606. Kind of data set: MIC broth microdilution, A. baumannii. It counts as cell-based, Acinetobacter baumannii. The following applies: A. baumannii ATCC 19606; for MIC: Acinetobacter baumannii, ATCC19606, read-out: Minimum Inhibitory Concentration.
Data set [6] has as its system M. abscessus ATCC 19977 ∆2780c. Kind of data set: microbe, parasite or virus in culture. It counts as cell-based, Mycobacterium abscessus. The note with it: Mycobacteroides abscessus, ATCC19977, 72 h, read-out: ∆2780c MIC.
Data set [7] concerns M. abscessus ATCC 19977.
For data set [8], the target named is T1, M. smegmatis ribosomes (strain SZ380) (Mycolicibacterium smegmatis, UniProt A0QSG6).
T1 construct: S30 extracts were prepared by addition of dithiothreitol (DTT) to 1 mM and centrifugation; endogenous in cells; host or cells: M. smegmatis strain SZ380, S30 cell extract
The note with it: read-out: Ribo. IC50; previously reported; cited from earlier work.

The next data set concerns E. coli K12 ∆tolC. Kind of data set: microbe, parasite or virus in culture. It counts as cell-based. The note with it: Escherichia coli, read-out: Minimum Inhibitory Concentration.
The subject of data set [9] is M. abscessus ATCC 19977. Kind of data set: microbe, parasite or virus in culture. The following applies: Mycobacteroides abscessus, ATCC19977, 72 h, read-out: WT MIC.
A further data set concerns S. pyogenes ATCC 700294. Kind of data set: MIC broth microdilution, S. pyogenes. Format: cell-based. The note with it: Streptococcus pyogenes, ATCC700294; S. pyogenes ATCC 700294; read-out: Minimum Inhibitory Concentration.
The test system of another data set is E. faecium ATCC 19434. Kind of data set: MIC broth microdilution, E. faecium. Format: cell-based. The following applies: Enterococcus faecium, ATCC19434; E. faecium ATCC 19434; read-out: Minimum Inhibitory Concentration.
Data set [10] relates to M. smegmatis strain MC^2 155. Kind of data set: MIC broth microdilution, M. smegmatis. It counts as cell-based, Mycobacterium smegmatis. The following applies: Mycolicibacterium smegmatis, MC^2155, 72 h; M. smegmatis strain MC^2 155; 3 days; read-out: WT MIC.
The test system of data set [11] is E. coli K12. Kind of data set: microbe, parasite or virus in culture. The following applies: Escherichia coli, K12, read-out: Minimum Inhibitory Concentration.
The next data set deals with P. aeruginosa ATCC 15692. Kind of data set: MIC broth microdilution, P. aeruginosa. It counts as cell-based, Pseudomonas aeruginosa. The note with it: P. aeruginosa ATCC 15692; for MIC: Pseudomonas aeruginosa, ATCC15692, read-out: Minimum Inhibitory Concentration.
The next data set relates to S. pneumoniae R6. Kind of data set: MIC broth microdilution, S. pneumoniae. Format: cell-based. The following applies: Streptococcus pneumoniae, read-out: Minimum Inhibitory Concentration.
Data set [12] has as its system M. tuberculosis H37Rv. Kind of data set: microbe, parasite or virus in culture. The note with it: Mycobacterium tuberculosis, 168 h, read-out: WT MIC.
In a further data set the test system is Gram-positive species. Kind of data set: MIC, Gram-positive panel compared to SPC. Format: cell-based. The following applies: against all Gram-positive species.
Data set [13] addresses T1, M. smegmatis ribosomes (strain SZ380). Kind of data set: Mycobacterial cell-free translation inhibition assay. Format: biochemical, Mycobacterium smegmatis. How it is done:
Mycobacterial cell-free translation inhibition assays were performed as described previously. In brief, M. smegmatis strain SZ380 bacterial cells were disrupted and emulsified with a microfluidizer processor (Microfluidics, Westwood, MA, USA) at 25,000 lb/in^2. S30 extracts were prepared by addition of dithiothreitol (DTT) to 1 mM and centrifugation at 30,000 × g at 4 °C. Translation reaction mixtures containing either test article or DMSO vehicle control and 4 μl of the S30 extract, 0.2 mM amino acid mix, 6 μg tRNA (Sigma), 0.4 μg hFluc mRNA, 0.3 μl protease inhibitor (complete, EDTA-free, Roche), 12 U RNAse inhibitor (Ribolock, Thermo Scientific), 6 μl S30 premix without amino acids (Promega), plus water to a final reaction volume of 15 μl were incubated for 1 h at 37 °C. The reaction was stopped on ice before adding 75 μl of luciferase assay reagent (Promega) and recording of luminescence. Regression analysis and IC50 calculations were performed using GraphPad Prism version 9.3.1 by using the equation [log(inhibitor) vs. response–Variable slope (four parameters)] with the fitting method: least squares (ordinary) fit. Y = Bottom + (Top-Bottom)/(1 + 10^((X-LogIC50))).

In brackets after ≈: the same amount, converted by molar mass. Where two headings read alike, the source gives them in different places.

T1 sequence (A0QSG6 whole entry): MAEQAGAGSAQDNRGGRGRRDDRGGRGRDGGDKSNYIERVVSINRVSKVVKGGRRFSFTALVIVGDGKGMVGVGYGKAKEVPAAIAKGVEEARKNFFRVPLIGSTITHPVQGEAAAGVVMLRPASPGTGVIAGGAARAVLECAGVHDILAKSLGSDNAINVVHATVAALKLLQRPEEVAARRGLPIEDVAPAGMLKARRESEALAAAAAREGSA

For orientation: IC50 means the concentration needed to halve the response being measured. As to `CN[C@@H]1[C@H](O)[C@H](NC)[C@H]2O[C@@]3(O)C(=O)C[C@@H](C)O[C@H]3O[C@@H]2[C@H]1O` [SPC (1), spectinomycin], the “E. coli Efflux Ratio” value with E. coli K12 [1] (E. coli K12 MIC versus K12 ∆tolC MIC) is given as 2. For the same molecule, the MIC was 512 µg/mL (≈ 1540 µM) with S. aureus USA300 (USA300, read-out: Minimum Inhibitory Concentration); 256 µg/mL (≈ 770 µM) in the data set on E. faecalis ATCC 29212; 512 µg/mL (≈ 1540 µM) in [2] (ATCC700603, read-out: Minimum Inhibitory Concentration); 256 to 512 µg/mL (≈ 770 to 1540 µM) in [3] (ATCC14990, read-out: Minimum Inhibitory Concentration); 4 µg/mL (≈ 12 µM) in [4]; greater than 1020 µg/mL with A. baumannii ATCC 19606. Further, the MIC in [6] worked out at 16 µg/mL (≈ 48.1 µM); in the data set with E. coli K12 ∆tolC, 64 µg/mL (≈ 193 µM); in the data set with M. abscessus ATCC 19977 [9], 512 µg/mL (≈ 1540 µM); with S. pyogenes ATCC 700294, 32 µg/mL (≈ 96.3 µM); in the data set with E. faecium ATCC 19434, 256 µg/mL (≈ 770 µM); in data set [10], 64 µg/mL (≈ 193 µM). The MIC in the data set on E. coli K12 [11] came to 128 µg/mL (≈ 385 µM); in the data set with P. aeruginosa ATCC 15692 it was 1020 µg/mL (≈ 3080 µM); in the data set on S. pneumoniae R6 it was 16 µg/mL (≈ 48.1 µM); in the data set with M. tuberculosis H37Rv [12], 64 µg/mL (≈ 193 µM). The “Efflux Ratio” value in the data set with M. tuberculosis H37Rv [5] is 16; in the data set on M. abscessus ATCC 19977 [7], 32. In addition, the IC50 in data set [8] was 800 nM.

Turning to `CCCC[C@@H]1CC(=O)[C@]2(O)O[C@@H]3[C@@H](NC)[C@@H](O)[C@@H](NC)[C@H](O)[C@H]3O[C@@H]2O1` [TroSPC (2), trospectomycin, reference compound], the “E. coli Efflux Ratio” value with E. coli K12 [1] is greater than 4. The MIC is 64 µg/mL (≈ 171 µM) in the data set on S. aureus USA300 (S. aureus USA300, read-out: Minimum Inhibitory Concentration); 64 µg/mL (≈ 171 µM) in the data set with E. faecalis ATCC 29212; greater than 64 µg/mL in [2] (ATCC700603, K. pneumoniae ATCC 700603, read-out: Minimum Inhibitory Concentration); 32 µg/mL (≈ 85.5 µM) in data set [3] (ATCC14990, S. epidermidis ATCC 14990, read-out: Minimum Inhibitory Concentration); 2 µg/mL (≈ 5.34 µM) in [4]; greater than 64 µg/mL in the data set on A. baumannii ATCC 19606. Also, the MIC in [6] was 16 µg/mL (≈ 42.7 µM); with E. coli K12 ∆tolC, 16 µg/mL (≈ 42.7 µM); in the data set on M. abscessus ATCC 19977 [9] it was 64 µg/mL (≈ 171 µM); in the data set on S. pyogenes ATCC 700294, 4 to 8 µg/mL (≈ 10.7 to 21.4 µM); in the data set with E. faecium ATCC 19434, 64 µg/mL (≈ 171 µM); in data set [10], 32 µg/mL (≈ 85.5 µM). The MIC with E. coli K12 [11] was greater than 64 µg/mL; in the data set with P. aeruginosa ATCC 15692, greater than 64 µg/mL; in the data set with S. pneumoniae R6, 4 µg/mL (≈ 10.7 µM); in the data set with M. tuberculosis H37Rv [12], 32 µg/mL (≈ 85.5 µM). Further, the “increase in activity compared to SPC” value with Gram-positive species was greater than 4 fold. Also, the “Minimum Inhibitory Concentration” value (in [2] (K. pneumoniae ATCC 700603); in the data set with A. baumannii ATCC 19606; in the data set on P. aeruginosa ATCC 15692) was greater than 64 µg/mL throughout. Further, the 50% inhibitory concentration (IC50) in data set [13] was determined as 510 nM. In addition, the “Efflux Ratio” value is reported as 16 in the data set on M. tuberculosis H37Rv [5] and 4 in the data set on M. abscessus ATCC 19977 [7].
